Patent publication US9365558B2 (BRISTOL-MYERS SQUIBB COMPANY, priority 2013, dated 2016)

Each compound was assayed against Human MGAT-2 (Homo sapiens (Human), UniProt Q3SYC2) (assay: MGAT LCMS Assay). Conditions: recombinant MGAT-2 membranes expressed in Sf9 cells; 100 μM 2-oleoylglycerol, 15 μM oleoyl-Coenzyme A; LC/MS of diolein; read-out: h-MGAT LCMS IC50.
Type: biochemical
Protocol: Assay plates were run through a fully automated robotics system and shaken for 5 seconds every minute for a total 10 minutes. The reactions were then quenched with 120 μL of ice cold methanol containing 1 μg/mL 1,2-distearoyl-rac-glycerol as the internal standard. Plates were shaken for 2 minutes and spun down to remove protein precipitation. After the spin, samples were transferred to LC/MS compatible PCR plates. For LC/MS analysis, a ThermoFisher Surveyor pump, utilizing a Waters Symmetry C8, 50×2.1 mm column, was used for the chromatography of enzyme products. The buffer system consists of 0.1% formic acid in water with a mobile phase consisting 0.1% formic acid in methanol. The shallow gradient is 90-100% mobile phase in 0.2 min with a total run time of 2.3 min. The first 0.5 minutes of each injection was diverted to waste to eliminate the presence of Phosphate buffer in the enzymatic reaction. The column was run at 0.6 mL/min and a temperature of 65° C. Mass spectrometry analysis of the samples was performed on a ThermoFisher Quantum Triple quad utilizing APCI (+) as the mode of ionization. […] The ratio of Diolein to internal standard (Peak Area Ratio) is utilized to calculate IC50 values.

Chain of Human MGAT-2 (Q3SYC2 whole entry): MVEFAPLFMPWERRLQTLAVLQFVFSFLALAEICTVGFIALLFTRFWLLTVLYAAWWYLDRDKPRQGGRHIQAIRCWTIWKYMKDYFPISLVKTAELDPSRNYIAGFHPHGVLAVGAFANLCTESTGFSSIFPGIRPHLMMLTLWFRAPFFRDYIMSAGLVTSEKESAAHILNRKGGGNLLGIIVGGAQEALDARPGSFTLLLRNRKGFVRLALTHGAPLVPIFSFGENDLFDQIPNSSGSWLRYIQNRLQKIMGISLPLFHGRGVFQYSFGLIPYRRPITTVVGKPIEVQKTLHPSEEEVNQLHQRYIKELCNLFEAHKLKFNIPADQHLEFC

Compound	IC50 [nM]
O=C1N[C@@](c2ccc(OCCCC(F)(F)F)cc2F)(C(F)(F)F)CC(c2ccn(C3CCC3)n2)=C1C(=O)NS(=O)(=O)C1CC1 [Example 45]	17
O=C1N[C@@](c2ccc(OCCCC(F)(F)F)cc2F)(C(F)(F)F)CC(c2ccn(C3CC3)n2)=C1C(=O)NS(=O)(=O)C1CC1 [Example 46]	81
CS(=O)(=O)NC(=O)C1=C(c2ccn(C3CC3)n2)C[C@](c2ccc(OCCCC(F)(F)F)cc2F)(C(F)(F)F)NC1=O [Example 47]	16
CCn1ccc(C2=C(C(=O)NS(=O)(=O)C3CC3)C(=O)N[C@@](c3ccc(OCCCC(F)(F)F)cc3F)(C(F)(F)F)C2)n1 [Example 48]	47
CC(C)n1ccc(C2=C(C(=O)NS(=O)(=O)C3CC3)C(=O)N[C@@](c3ccc(CCCCC(F)(F)F)cc3F)(C(F)(F)F)C2)c1 [Example 51]	3
O=C1N[C@@](c2cnn(CCCCCC(F)(F)F)c2)(C(F)(F)F)CC(c2ccc(C3CC3)s2)=C1C(=O)NS(=O)(=O)C1CC1 [Example 59]	4
C[C@@]1(c2ccc(OCCCC(F)(F)F)cc2)CC(c2ccn(CC3CC3)n2)=C(C(=O)NS(=O)(=O)C2CC2)C(=O)N1 [Example 60]	34
Cc1ccc(C2=C(C(=O)NS(N)(=O)=O)C(=O)N[C@@](c3ccc(OCCCC(F)(F)F)cc3)(C(F)(F)F)C2)cc1 [Example 61]	45
O=C1N[C@@](c2ccc(OCCCCC(F)(F)F)cc2)(C(F)(F)F)CC(c2ccc(C3CC3)s2)=C1C(=O)NS(=O)(=O)C1CC1 [Example 62]	8
O=C1N[C@@](c2ccc(OCCCC(F)(F)F)cc2)(C(F)(F)F)CC(c2ccc(C3CC3)s2)=C1C(=O)NS(=O)(=O)C1CC1 [Example 63]	5
CS(=O)(=O)NC(=O)C1=C(c2ccc(C3CC3)s2)C[C@](c2ccc(OCCCC(F)(F)F)cc2)(C(F)(F)F)NC1=O [Example 64]	6
CS(=O)(=O)NC(=O)C1=C(c2ccc3c(c2)CCC3)C[C@](c2ccc(OCCCC(F)(F)F)cc2F)(C(F)(F)F)NC1=O [Example 66]	22
CS(=O)(=O)NC(=O)C1=C(c2ccc(C3CC3)cc2)C[C@](c2ccc(OCCCCCC(F)(F)F)cc2F)(C(F)(F)F)NC1=O [Example 68]	1
Cc1ccc(C2=C(C(=O)NS(=O)(=O)C3CC3)C(=O)N[C@@](c3ccc(OCCCC(F)(F)F)cc3Cl)(C(F)(F)F)C2)cc1 [Example 69]	9
CS(=O)(=O)NC(=O)C1=C(c2ccc(C(F)F)cc2)C[C@](c2ccc(OCCCC(F)(F)F)cc2F)(C(F)(F)F)NC1=O [Example 71]	12
CC(C)n1ccc(C2=C(C(=O)NS(=O)(=O)C3CC3)C(=O)N[C@@](c3ccc(OCCCCCC(F)(F)F)cc3)(C(F)(F)F)C2)c1 [Example 72]	4
O=C1N[C@@](c2ccc(CCCCC(F)(F)F)cc2)(C(F)(F)F)CC(c2ccn(CC3CC3)n2)=C1C(=O)NS(=O)(=O)C1CC1 [Example 73]	2
CC(C)n1ccc(C2=C(C(=O)NS(=O)(=O)C3CC3)C(=O)N[C@@](c3ccc(CCCCC(F)(F)F)cc3)(C(F)(F)F)C2)n1 [Example 75]	23
O=C1N[C@@](c2ccc(CCCCC(F)(F)F)cc2)(C(F)(F)F)CC(c2ccn(C3CC3)n2)=C1C(=O)NS(=O)(=O)C1CC1 [Example 76]	72
CC(C)(C)c1ccc(C2=C(C(=O)NS(C)(=O)=O)C(=O)N[C@](C)(c3ccc(OCCCC(F)(F)F)cc3)C2)cc1 [Example 85]	27
O=C1N[C@@](c2ccc(OCCCC(F)(F)F)cc2)(C(F)(F)F)CC(c2ccn(CC3CC3)n2)=C1C(=O)NS(=O)(=O)C1CC1 [Example 88]	67
O=C1N[C@@](c2ccc(OCCCCCC(F)(F)F)cc2F)(C(F)(F)F)CC(c2ccn(C3CC3)n2)=C1C(=O)NS(=O)(=O)C1CC1 [Example 89]	6
CS(=O)(=O)NC(=O)C1=C(c2ccn(CC3CC3)n2)C[C@](c2ccc(OCCCC(F)(F)F)cc2)(C(F)(F)F)NC1=O [Example 91]	23
Cc1ccc(C2=C(C(=O)NS(=O)(=O)C3CC3)C(=O)N[C@@](c3cnn(CCCCCC(F)(F)F)c3)(C(F)(F)F)C2)cc1 [Example 93]	179
CCOc1ccc(C2=C(C(=O)NS(=O)(=O)C3CC3)C(=O)N[C@@](c3ccc(OCCCC(F)(F)F)cc3F)(C(F)(F)F)C2)cc1 [Example 96]	7
CCOc1ccc(C2=C(C(=O)NS(C)(=O)=O)C(=O)N[C@@](c3ccc(OCCCC(F)(F)F)cc3F)(C(F)(F)F)C2)cc1 [Example 97]	42
[2H]C1([2H])C(c2ccc(OC)cc2)=C(C(=O)NS(=O)(=O)C2CC2)C(=O)N[C@@]1(c1ccc(OCCCCCC(F)(F)F)cc1F)C(F)(F)F [Example 99]	4

Results, then the compound that gave them:

IC50 [nM]	Compound
7	CS(=O)(=O)NC(=O)C1=C(c2ccn(C3CCC3)n2)C[C@](c2ccc(OCCCC(F)(F)F)cc2F)(C(F)(F)F)NC1=O [Example 44]
10	O=C1N[C@@](c2ccc(CCCCC(F)(F)F)cc2F)(C(F)(F)F)CC(c2ccn(CC3CC3)n2)=C1C(=O)NS(=O)(=O)C1CC1 [Example 52]
89	CCn1ccc(C2=C(C(=O)NS(=O)(=O)C3CC3)C(=O)N[C@@](c3ccc(CCCCC(F)(F)F)cc3F)(C(F)(F)F)C2)n1 [Example 53]
59	CC(C)Cn1ccc(C2=C(C(=O)NS(=O)(=O)C3CC3)C(=O)N[C@@](c3ccc(CCCCC(F)(F)F)cc3F)(C(F)(F)F)C2)n1 [Example 54]
62	CC(C)Cn1ccc(C2=C(C(=O)NS(=O)(=O)C3CC3)C(=O)N[C@@](c3ccc(OCCCC(F)(F)F)cc3F)(C(F)(F)F)C2)n1 [Example 55]
13	O=C1N[C@@](c2ccc(OCCCC(F)(F)F)cc2F)(C(F)(F)F)CC(c2ccn(CC3CC3)n2)=C1C(=O)NS(=O)(=O)C1CC1 [Example 56]
37	O=C1N[C@@](c2ccc(OCCCC(F)(F)F)cc2F)(C(F)(F)F)CC(c2ccn(CC3CCC3)n2)=C1C(=O)NS(=O)(=O)C1CC1 [Example 57]
13	O=C1N[C@@](c2cnn(CCCCCC(F)(F)F)c2)(C(F)(F)F)CC(c2ccc3c(c2)CCCC3)=C1C(=O)NS(=O)(=O)C1CC1 [Example 58]
4	CS(=O)(=O)NC(=O)C1=C(c2ccc(C3CC3)s2)C[C@](c2ccc(OCCCC(F)(F)F)cc2F)(C(F)(F)F)NC1=O [Example 65]
1	CS(=O)(=O)NC(=O)C1=C(c2ccc(C(F)F)cc2)C[C@](c2ccc(OCCCCCC(F)(F)F)cc2F)(C(F)(F)F)NC1=O [Example 67]
2	O=C1N[C@@](c2ccc(OCCCC(F)(F)F)cc2F)(C(F)(F)F)CC(c2ncc(C3CC3)s2)=C1C(=O)NS(=O)(=O)C1CC1 [Example 70]
17	O=C1N[C@@](c2ccc(OCCCC(F)(F)F)cc2)(C(F)(F)F)CC(c2ccn(CC3CCC3)n2)=C1C(=O)NS(=O)(=O)C1CC1 [Example 74]
29	O=C1N[C@@](c2ccc(OCCCC(F)(F)F)cc2)(C(F)(F)F)CC(c2ccn(C3CCC3)n2)=C1C(=O)NS(=O)(=O)C1CC1 [Example 77]
25	O=C1N[C@@](c2ccc(OCCCCCC(F)(F)F)cc2)(C(F)(F)F)CC(c2ccn(C3CC3)n2)=C1C(=O)NS(=O)(=O)C1CC1 [Example 78]
3	O=C1N[C@@](c2ccc(OCCCCCC(F)(F)F)cc2)(C(F)(F)F)CC(c2ccn(CC3CC3)n2)=C1C(=O)NS(=O)(=O)C1CC1 [Example 79]
43	CC(C)Cn1ccc(C2=C(C(=O)NS(=O)(=O)C3CC3)C(=O)N[C@@](c3ccc(OCCCCCC(F)(F)F)cc3)(C(F)(F)F)C2)n1 [Example 81]
2	CCc1ccc(C2=C(C(=O)NS(=O)(=O)C3CC3)C(=O)N[C@](C)(c3ccc(OCCCC(F)(F)F)cc3)C2)cc1 [Example 82]
6	CS(=O)(=O)NC(=O)C1=C(c2ccn(C3CC3)n2)C[C@](c2ccc(OCCCCCC(F)(F)F)cc2)(C(F)(F)F)NC1=O [Example 83]
166	CS(=O)(=O)NC(=O)C1=C(c2ccn(C3CC3)n2)C[C@](c2ccc(OCCCCCC(F)(F)F)cc2F)(C(F)(F)F)NC1=O [Example 86]
98	O=C1N[C@@](c2ccc(OCCCC(F)(F)F)cc2)(C(F)(F)F)CC(c2ccn(C3CC3)n2)=C1C(=O)NS(=O)(=O)C1CC1 [Example 87]
8	CS(=O)(=O)NC(=O)C1=C(c2ccn(CC3CCC3)n2)C[C@](c2ccc(OCCCC(F)(F)F)cc2)(C(F)(F)F)NC1=O [Example 90]
4	O=C1N[C@@](c2cnn(CCCCCCC(F)(F)F)c2)(C(F)(F)F)CC(c2ccc3c(c2)CCCC3)=C1C(=O)NS(=O)(=O)C1CC1 [Example 94]
88	O=C1N[C@@](c2cnn(CC/C=C/CCC(F)(F)F)c2)(C(F)(F)F)CC(c2ccc3c(c2)CCCC3)=C1C(=O)NS(=O)(=O)C1CC1 [Example 95]
22	Cc1ccc(C2=C(C(=O)NS(=O)(=O)C3CC3)C(=O)N[C@@](C3CCCCC3)(C(F)(F)F)C2)cc1 [Example 98]
